Here are results for 24 molecules from patent US8202885B2, “Bridged six-membered ring compounds” (Actelion Pharmaceuticals Ltd., priority 2007, dated 2012).

This experiment concerns human Cav3.1 Cav3.2 or Cav3.3 channel. Description: In vitro assay T channel (FLIPR calcium fluorescence). The note with it: HEK293 cells expressing human Cav3.1, Cav3.2 or Cav3.3; 10 mM Ca2+-induced fluo-4 fluorescence; determined up to 10 μM; read-out: T channel antagonistic activity IC50. In kind it is cell-based. Put shortly: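 HEK293 cells stably expressing human Cav3.1, Cav3.2 or Cav3.3 loaded with fluo-4 AM (3 μM), preincubated 3 min with antagonist, then stimulated with 10 mM Ca2+ in TEA-chloride/HEPES buffer pH 7.2. FLIPR fluorescence read every 2 s for 8 min; IC50 from peak area versus vehicle, tested up to 10 μM.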
For orientation: IC50 means the midpoint of a concentration-inhibition curve. Turning to `CN(CCCc1nc2ccccc2[nH]1)CCC1(O)CC2CCC1C=C2c1ccccc1` (single isomer, unassigned) [Example 12, (1R,2R,4R)-2-(2-{[3-(1H-Benzoimidazol-2-yl)-propyl]-methyl-amino}-ethyl)-5-phenyl-bicyclo[2.2.2]oct-5-en-2-ol or (1S,2S,4S)-2-(2-{[3-(1H-benzoimidazol-2-yl)-propyl]-methyl-amino}-ethyl)-5-phenyl-bicyclo[2.2.2]oct-5-en-2-ol], the IC50 is over 10000 nM. Turning to `CC(C)C(=O)O[C@@]1(CCN(C)CCCc2nc3ccccc3[nH]2)C[C@H]2CC[C@@H]1C=C2c1ncco1` (relative stereo) [Example 25A, rac-Isobutyric acid (1R*,2R*,4R*)-2-(2-{[3-(1H-benzoimidazol-2-yl)-propyl]-methyl-amino}-ethyl)-5-oxazol-2-yl-bicyclo[2.2.2]oct-5-en-2-yl ester], the IC50 came to 1590 nM. `CO[C@@]1(c2ccccc2)C[C@H]2CC[C@@H]1C[C@]2(O)CCN(C)CCCc1nc2ccccc2[nH]1` (relative stereo) [Example 77, rac-(1R*,2S*,4R*,5S*)-2-(2-{[3-(1H-Benzoimidazol-2-yl)-propyl]-methyl-amino}-ethyl)-5-methoxy-5-phenyl-bicyclo[2.2.2]octan-2-ol]: the concentration for half-maximal inhibition (IC50) was determined as 9100 nM.

For the molecule `Cc1nc(CCCN(C)CC[C@]2(OC(=O)C(C)C)C[C@H]3CC[C@@H]2C=C3c2ccccc2)[nH]c1-c1ccccc1` (relative stereo) [Example 71A, rac-Isobutyric acid (1R*,2R*,4R*)-2-(2-{methyl-[3-(4-methyl-5-phenyl-1H-imidazol-2-yl)-propyl]-amino}-ethyl)-5-phenyl-bicyclo[2.2.2]oct-5-en-2-yl ester], the half-maximal inhibitory concentration (IC50) came to 1450 nM. Take `COc1ccc(CCCN(C)CC[C@]2(OC(=O)C(C)C)C[C@H]3CC[C@@H]2C=C3c2ccccc2)cc1OC` (relative stereo) [Example 39A, rac-Isobutyric acid (1R*,2R*,4R*)-2-(2-{[3-(3,4-dimethoxy-phenyl)-propyl]-methyl-amino}-ethyl)-5-phenyl-bicyclo[2.2.2]oct-5-en-2-yl ester]: the 50% inhibitory concentration (IC50) came out at 7490 nM. The result for `CC(=O)Nc1cccc2[nH]c(CCCN(C)CC[C@]3(OC(=O)C(C)C)C[C@H]4CC[C@@H]3C=C4c3ccccc3)nc12` (relative stereo) [Example 56A, rac-Isobutyric acid (1R*,2R*,4R*)-2-(2-{[3-(4-acetylamino-1H-benzoimidazol-2-yl)-propyl]-methyl-amino}-ethyl)-5-phenyl-bicyclo[2.2.2]oct-5-en-2-yl ester] reads 2520 nM. Take `COc1ccccc1-c1cnc(CCCN(C)CC[C@]2(OC(=O)C(C)C)C[C@H]3CC[C@@H]2C=C3c2ccccc2)[nH]1` (relative stereo) [Example 72A, rac-Isobutyric acid (1R*,2R*,4R*)-2-[2-({3-[5-(2-methoxy-phenyl)-1H-imidazol-2-yl]-propyl}-methyl-amino)-ethyl]-5-phenyl-bicyclo[2.2.2]oct-5-en-2-yl ester]: the IC50 worked out at 2290 nM. With `COc1cccc2[nH]c(CCCN(C)CC[C@]3(OC(=O)OC(C)C)C[C@H]4CC[C@@H]3C=C4c3ccccc3)nc12` (relative stereo) [Example 26G, rac-Carbonic acid isopropyl ester (1R*,2R*,4R*)-2-(2-{[3-(4-methoxy-1H-benzoimidazol-2-yl)-propyl]-methyl-amino}-ethyl)-5-phenyl-bicyclo[2.2.2]oct-5-en-2-yl ester], the IC50 was 935 nM. Next, `CN(CC[C@]1(O)C[C@H]2CC[C@@H]1C=C2c1ccccc1)Cc1nc2ccccc2[nH]1` (relative stereo) [Example 14, rac-(1R*,2R*,4R*)-2-{2-[(1H-Benzoimidazol-2-ylmethyl)-methyl-amino]-ethyl}-5-phenyl-bicyclo[2.2.2]oct-5-en-2-ol]: 8950 nM; `CN(CCCc1ccccc1)CC[C@]1(O)C[C@H]2CC[C@@H]1C=C2c1ccccc1` (relative stereo) [Example 15, rac-(1R*,2R*,4R*)-2-{2-[Methyl-(3-phenyl-propyl)-amino]-ethyl}-5-phenyl-bicyclo[2.2.2]oct-5-en-2-ol]: over 10000 nM. Take `COC(=O)c1ccc2[nH]c(CCCN(C)CC[C@]3(O)C[C@H]4CC[C@@H]3C=C4c3ccccc3)nc2c1` (relative stereo) [Example 20, rac-2-(3-{[2-((1R*,2R*,4R*)-2-Hydroxy-5-phenyl-bicyclo[2.2.2]oct-5-en-2-yl)-ethyl]-methyl-amino}-propyl)-1H-benzoimidazole-5-carboxylic acid methyl ester]: the IC50 is over 10000 nM. Consider `COc1cc(C)c2[nH]c(CCCN(C)CC[C@]3(OC(=O)C(C)C)C[C@H]4CC[C@@H]3C=C4c3ccccc3)nc2c1OC` (relative stereo) [Example 64A, rac-Isobutyric acid (1R*,2R*,4R*)-2-(2-{[3-(4,5-dimethoxy-7-methyl-1H-benzoimidazol-2-yl)-propyl]-methyl-amino}-ethyl)-5-phenyl-bicyclo[2.2.2]oct-5-en-2-yl ester], for which the IC50 was 914 nM.

Consider `COC(=O)c1cccc2[nH]c(CCCN(C)CC[C@]3(O)C[C@H]4CC[C@@H]3C=C4c3ccccc3)nc12` (relative stereo) [Example 19, rac-2-(3-{[2-((1R*,2R*,4R*)-2-Hydroxy-5-phenyl-bicyclo[2.2.2]oct-5-en-2-yl)-ethyl]-methyl-amino}-propyl)-1H-benzoimidazole-4-carboxylic acid methyl ester], for which the concentration for half-maximal inhibition (IC50) came to 1570 nM. For the molecule `CC(C)C(=O)O[C@@]1(CCN(C)CCCc2nc3ccccc3[nH]2)C[C@H]2CC[C@@H]1C=C2c1cccc(F)c1` (relative stereo) [Example 7A, rac-Isobutyric acid (1R*,2R*,4R*)-2-(2-{[3-(1H-benzoimidazol-2-yl)-propyl]-methyl-amino}-ethyl)-5-(3-fluoro-phenyl)-bicyclo[2.2.2]oct-5-en-2-yl ester], the 50% inhibitory concentration (IC50) was found to be 3140 nM. The result for `CN(CCCc1nc2ccccc2[nH]1)CC[C@]1(O)C[C@H]2CC[C@@H]1C=C2c1ccc(F)cc1` (relative stereo) [Example 8, rac-(1R*,2R*,4R*)-2-(2-{[3-(1H-Benzoimidazol-2-yl)-propyl]-methyl-amino}-ethyl)-5-(4-fluoro-phenyl)-bicyclo[2.2.2]oct-5-en-2-ol] reads 1790 nM; that for `COC(=O)c1cccc2[nH]c(CCCN(C)CC[C@]3(OC(=O)C(C)C)C[C@H]4CC[C@@H]3C=C4c3ccccc3)nc12` (relative stereo) [Example 19A, rac-2-(3-{[2-((1R*,2R*,4R*)-2-Isobutyryloxy-5-phenyl-bicyclo[2.2.2]oct-5-en-2-yl)-ethyl]-methyl-amino}-propyl)-1H-benzoimidazole-4-carboxylic acid methyl ester], 1700 nM.

In the case of `COc1cccc2c1nc(CCCN(C)CC[C@]1(O)C[C@H]3CC[C@@H]1C=C3c1ccccc1)n2C` (relative stereo) [Example 37, rac-(1R*,2R*,4R*)-2-(2-{[3-(4-Methoxy-1-methyl-1H-benzoimidazol-2-yl)-propyl]-methyl-amino}-ethyl)-5-phenyl-bicyclo[2.2.2]oct-5-en-2-ol], the IC50 worked out at 6650 nM. Next, `CC(C)C(=O)O[C@@]1(CCN(C)CCCc2nc3cccc(O)c3[nH]2)C[C@H]2CC[C@@H]1C=C2c1ccccc1` (relative stereo) [Example 35A, rac-Isobutyric acid (1R*,2R*,4R*)-2-(2-{[3-(7-hydroxy-1H-benzoimidazol-2-yl)-propyl]-methyl-amino}-ethyl)-5-phenyl-bicyclo[2.2.2]oct-5-en-2-yl ester]: 1340 nM; `COc1cccc(C2=C[C@H]3CC[C@@H]2C[C@@]3(O)CCN(C)CCCc2nc3ccccc3[nH]2)c1` (relative stereo) [Example 2, rac-(1R*,2R*,4R*)-2-(2-{[3-(1H-Benzoimidazol-2-yl)-propyl]-methyl-amino}-ethyl)-5-(3-methoxy-phenyl)-bicyclo[2.2.2]oct-5-en-2-ol]: 5980 nM; `CC1=C(c2ccccc2)[C@H]2CC[C@@H]1C[C@]2(O)CCN(C)CCCc1nc2ccccc2[nH]1` (relative stereo) [Example 17B, rac-(1R*,2S*,4R*)-2-(2-{[3-(1H-Benzoimidazol-2-yl)-propyl]-methyl-amino}-ethyl)-5-methyl-6-phenyl-bicyclo[2.2.2]oct-5-en-2-ol]: 751 nM. In the case of `CC1=C(c2ccccc2)[C@H]2CC[C@@H]1C[C@@]2(O)CCN(C)CCCc1nc2ccccc2[nH]1` (relative stereo) [Example 17, rac-(1R*,2R*,4R*)-2-(2-{[3-(1H-Benzoimidazol-2-yl)-propyl]-methyl-amino}-ethyl)-5-methyl-6-phenyl-bicyclo[2.2.2]oct-5-en-2-ol], the IC50 was found to be 1260 nM. `CC(C)C(=O)O[C@]1(CCN(C)CCCc2nc3ccccc3[nH]2)C[C@@H]2CC[C@H]1CN2c1ccccc1` [Example 74A, Isobutyric acid (1S,4S,5R)-5-(2-{[3-(1H-benzoimidazol-2-yl)-propyl]-methyl-amino}-ethyl)-2-phenyl-2-aza-bicyclo[2.2.2]oct-5-yl ester]: the 50% inhibitory concentration (IC50) came out at 8600 nM. The result for `Cc1ccccc1C1=C[C@H]2CC[C@@H]1C[C@]2(CCN(C)CCCc1nc2ccccc2[nH]1)OC(=O)C(C)C` (relative stereo) [Example 4A, rac-Isobutyric acid (1R*,2R*,4R*)-2-(2-{[3-(1H-benzoimidazol-2-yl)-propyl]-methyl-amino}-ethyl)-5-(2-methyl-phenyl)-bicyclo[2.2.2]oct-5-en-2-yl ester] reads 4220 nM; that for `COc1cccc2[nH]c(CCCN(C)CC[C@]3(OC(=O)C(C)C)C[C@H]4CC[C@@H]3C=C4c3ccccc3)nc12` (relative stereo) [Example 26A, rac-Isobutyric acid (1R*,2R*,4R*)-2-(2-{[3-(4-methoxy-1H-benzoimidazol-2-yl)-propyl]-methyl-amino}-ethyl)-5-phenyl-bicyclo[2.2.2]oct-5-en-2-yl ester], 2090 nM.
